Measured values as given in ChEMBL document CHEMBL1201862, “PubChem BioAssay data set” (2004).
Active and inactive are the calls of the source.

What was measured:
[1] = target: T1, RNA-binding protein pos-1 (Caenorhabditis elegans, UniProt G5EF15); assay: disruptors of C. elegans POS-1 RNA interaction – biochemical, fluorescence polarization, dose response (AID 1964);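 also: purified POS-1 fused to maltose binding protein made in E. coli; potency of compounds blocking POS-1 binding to fluorescent RNA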
T1 sequence (G5EF15 whole entry): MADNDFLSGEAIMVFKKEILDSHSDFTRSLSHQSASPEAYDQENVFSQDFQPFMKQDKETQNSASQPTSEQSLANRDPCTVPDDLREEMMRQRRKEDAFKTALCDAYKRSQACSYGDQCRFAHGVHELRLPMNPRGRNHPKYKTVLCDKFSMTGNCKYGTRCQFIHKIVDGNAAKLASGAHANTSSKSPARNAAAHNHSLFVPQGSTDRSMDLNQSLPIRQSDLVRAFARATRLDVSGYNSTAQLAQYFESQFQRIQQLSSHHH

[2] = target: T2, Zinc finger protein mex-5 (Caenorhabditis elegans, UniProt Q9XUB2); assay: potency of MEX-5 RNA-binding blockers – biochemical, C. elegans, fluorescence polarization, dose response (AID 1960)
T2 sequence (Q9XUB2 whole entry): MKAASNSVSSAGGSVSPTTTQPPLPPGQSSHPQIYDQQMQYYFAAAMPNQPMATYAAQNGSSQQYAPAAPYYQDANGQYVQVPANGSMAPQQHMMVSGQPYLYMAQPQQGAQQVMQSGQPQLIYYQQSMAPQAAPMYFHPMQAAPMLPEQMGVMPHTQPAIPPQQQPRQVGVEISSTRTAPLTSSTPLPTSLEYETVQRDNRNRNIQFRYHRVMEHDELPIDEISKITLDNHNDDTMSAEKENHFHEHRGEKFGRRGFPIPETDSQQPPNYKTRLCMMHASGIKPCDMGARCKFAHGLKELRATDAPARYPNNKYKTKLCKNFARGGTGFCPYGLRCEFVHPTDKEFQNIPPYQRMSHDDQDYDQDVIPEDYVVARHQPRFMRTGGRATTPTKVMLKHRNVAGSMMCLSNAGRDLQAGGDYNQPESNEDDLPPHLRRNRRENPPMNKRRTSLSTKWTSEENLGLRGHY

[3] = target: T3, Endoribonuclease toxin MazF (Escherichia coli K-12, UniProt P0AE70); assay: activation of MazEF endoribonuclease cleavage – biochemical, fluorescence, single-stranded RNA substrate, uHTS hits, dose response (AID 588481); assay type: functional
T3 sequence (P0AE70 whole entry): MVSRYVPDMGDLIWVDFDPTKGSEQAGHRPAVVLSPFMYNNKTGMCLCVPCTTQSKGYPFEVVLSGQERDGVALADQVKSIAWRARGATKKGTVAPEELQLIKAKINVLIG

[4] = target: T3, Endoribonuclease toxin MazF; assay: substrate-only fluorescence increase artefacts – biochemical, single-stranded RNase substrate, counter-screen for MazEF activator project, dose response (AID 588502); assay type: functional
[5] = target: T4, Corticotropin-releasing factor receptor 2/Corticotropin-releasing factor-binding protein (Homo sapiens, UniProt P24387+Q13324); assay: activators of CRF receptor 2 with binding protein – uHTS hits, confirmation (AID 602473); assay type: functional; details: read-out: EC50_Mean
T4 sequence (Q13324 whole entry): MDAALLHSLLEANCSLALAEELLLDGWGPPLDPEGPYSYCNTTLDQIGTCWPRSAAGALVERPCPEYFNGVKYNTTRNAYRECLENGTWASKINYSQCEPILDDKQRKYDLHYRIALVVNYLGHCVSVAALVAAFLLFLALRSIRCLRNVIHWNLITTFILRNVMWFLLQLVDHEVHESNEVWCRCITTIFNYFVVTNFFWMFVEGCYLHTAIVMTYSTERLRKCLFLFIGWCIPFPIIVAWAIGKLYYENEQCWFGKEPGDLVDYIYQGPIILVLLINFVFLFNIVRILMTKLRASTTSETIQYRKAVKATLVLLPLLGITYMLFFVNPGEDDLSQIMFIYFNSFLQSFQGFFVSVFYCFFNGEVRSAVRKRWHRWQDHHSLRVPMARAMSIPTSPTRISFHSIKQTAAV
T4 sequence (P24387 whole entry): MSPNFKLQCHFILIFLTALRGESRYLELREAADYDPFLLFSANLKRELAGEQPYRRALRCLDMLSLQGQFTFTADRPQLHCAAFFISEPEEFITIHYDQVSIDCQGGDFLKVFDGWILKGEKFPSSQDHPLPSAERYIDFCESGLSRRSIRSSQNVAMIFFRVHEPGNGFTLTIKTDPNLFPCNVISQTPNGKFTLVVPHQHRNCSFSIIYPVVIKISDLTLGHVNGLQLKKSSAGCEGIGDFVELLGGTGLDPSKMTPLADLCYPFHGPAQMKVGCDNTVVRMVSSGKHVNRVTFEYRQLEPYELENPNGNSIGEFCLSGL

Galanin receptor type 3 = Galanin receptor type 3 (Homo sapiens, UniProt O60755); assay: Fluorescence-based cell-based primary high throughput dose response assay to identify antagonists of the Galanin Receptor 3 (GalR3).; assay type: functional
Chain of Galanin receptor type 3 (O60755 whole entry): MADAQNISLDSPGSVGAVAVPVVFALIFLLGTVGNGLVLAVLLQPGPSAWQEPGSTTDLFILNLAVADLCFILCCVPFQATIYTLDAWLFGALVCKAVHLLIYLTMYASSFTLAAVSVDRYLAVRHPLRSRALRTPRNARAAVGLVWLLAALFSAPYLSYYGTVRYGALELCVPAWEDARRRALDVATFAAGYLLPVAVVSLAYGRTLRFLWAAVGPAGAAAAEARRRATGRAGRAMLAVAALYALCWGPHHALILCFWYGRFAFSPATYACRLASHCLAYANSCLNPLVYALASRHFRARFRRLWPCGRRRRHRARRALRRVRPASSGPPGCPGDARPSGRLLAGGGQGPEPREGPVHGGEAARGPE

cells [6] = assay type: functional, cell-based; details: HEK-CNG
CHO = CHO cell viability loss, potency – luminescence, cytotoxicity control for TLR9-MyD88 binding inhibitor project, dose response (AID 588339); assay type: functional, cell-based, hamster; details: Cricetulus griseus;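 also: CHO cells stably coexpressing TLR9 and MyD88 fusions from primary screen; compound exposure lasted 48 hours before viability readout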
Beta Lactamase = Beta Lactamase (Pseudomonas aeruginosa, UniProt Q932Y6); assay: BLA reporter interference, concentration series – BLA reporter cells, FRET fluorescence, artefact control for TLR9-MyD88 binding inhibitor project, dose response (AID 588341); assay type: cell-based;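 also: cell based assay in CHO-K1 cells stably expressing beta-lactamase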
Chain of Beta Lactamase (Q932Y6 whole entry): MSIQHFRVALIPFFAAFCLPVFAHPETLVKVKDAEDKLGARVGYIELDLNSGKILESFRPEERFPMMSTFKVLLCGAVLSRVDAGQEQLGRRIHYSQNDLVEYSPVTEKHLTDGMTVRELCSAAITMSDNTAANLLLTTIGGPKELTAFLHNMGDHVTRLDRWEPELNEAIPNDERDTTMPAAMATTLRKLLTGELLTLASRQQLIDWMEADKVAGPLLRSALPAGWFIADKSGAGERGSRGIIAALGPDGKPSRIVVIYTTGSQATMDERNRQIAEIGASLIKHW

cells [7] = assay type: functional, cell-based
cells [8] = assay type: functional, cell-based; remark: listed apart in the source
Streptokinase A = target: T5, Streptokinase A (Streptococcus pyogenes serotype M1, UniProt P10520); assay: viability-normalized secreted streptokinase activity reduction – plasminogen activation absorbance, OD405, dose response (AID 1914); assay type: functional, Streptococcus pyogenes M1 GAS;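 also: secreted streptokinase activity via plasminogen activation per viability signal from cell pellet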
T5 sequence (P10520 whole entry): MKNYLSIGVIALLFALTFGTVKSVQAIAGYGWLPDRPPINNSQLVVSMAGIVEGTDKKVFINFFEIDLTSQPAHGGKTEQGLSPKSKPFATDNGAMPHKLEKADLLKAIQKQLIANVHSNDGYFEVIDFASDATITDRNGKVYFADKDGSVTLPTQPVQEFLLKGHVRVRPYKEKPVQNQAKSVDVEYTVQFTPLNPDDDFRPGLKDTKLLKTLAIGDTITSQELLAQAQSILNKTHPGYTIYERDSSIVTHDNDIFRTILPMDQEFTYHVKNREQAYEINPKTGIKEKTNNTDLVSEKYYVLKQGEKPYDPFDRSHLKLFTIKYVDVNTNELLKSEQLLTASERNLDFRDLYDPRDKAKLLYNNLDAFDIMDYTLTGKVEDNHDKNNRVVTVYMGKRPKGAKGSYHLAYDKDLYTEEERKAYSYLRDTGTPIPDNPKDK

[9] = target: T6, Apoptotic protease-activating factor 1 (Homo sapiens, UniProt O14727); assay type: functional
T6 sequence (O14727 whole entry): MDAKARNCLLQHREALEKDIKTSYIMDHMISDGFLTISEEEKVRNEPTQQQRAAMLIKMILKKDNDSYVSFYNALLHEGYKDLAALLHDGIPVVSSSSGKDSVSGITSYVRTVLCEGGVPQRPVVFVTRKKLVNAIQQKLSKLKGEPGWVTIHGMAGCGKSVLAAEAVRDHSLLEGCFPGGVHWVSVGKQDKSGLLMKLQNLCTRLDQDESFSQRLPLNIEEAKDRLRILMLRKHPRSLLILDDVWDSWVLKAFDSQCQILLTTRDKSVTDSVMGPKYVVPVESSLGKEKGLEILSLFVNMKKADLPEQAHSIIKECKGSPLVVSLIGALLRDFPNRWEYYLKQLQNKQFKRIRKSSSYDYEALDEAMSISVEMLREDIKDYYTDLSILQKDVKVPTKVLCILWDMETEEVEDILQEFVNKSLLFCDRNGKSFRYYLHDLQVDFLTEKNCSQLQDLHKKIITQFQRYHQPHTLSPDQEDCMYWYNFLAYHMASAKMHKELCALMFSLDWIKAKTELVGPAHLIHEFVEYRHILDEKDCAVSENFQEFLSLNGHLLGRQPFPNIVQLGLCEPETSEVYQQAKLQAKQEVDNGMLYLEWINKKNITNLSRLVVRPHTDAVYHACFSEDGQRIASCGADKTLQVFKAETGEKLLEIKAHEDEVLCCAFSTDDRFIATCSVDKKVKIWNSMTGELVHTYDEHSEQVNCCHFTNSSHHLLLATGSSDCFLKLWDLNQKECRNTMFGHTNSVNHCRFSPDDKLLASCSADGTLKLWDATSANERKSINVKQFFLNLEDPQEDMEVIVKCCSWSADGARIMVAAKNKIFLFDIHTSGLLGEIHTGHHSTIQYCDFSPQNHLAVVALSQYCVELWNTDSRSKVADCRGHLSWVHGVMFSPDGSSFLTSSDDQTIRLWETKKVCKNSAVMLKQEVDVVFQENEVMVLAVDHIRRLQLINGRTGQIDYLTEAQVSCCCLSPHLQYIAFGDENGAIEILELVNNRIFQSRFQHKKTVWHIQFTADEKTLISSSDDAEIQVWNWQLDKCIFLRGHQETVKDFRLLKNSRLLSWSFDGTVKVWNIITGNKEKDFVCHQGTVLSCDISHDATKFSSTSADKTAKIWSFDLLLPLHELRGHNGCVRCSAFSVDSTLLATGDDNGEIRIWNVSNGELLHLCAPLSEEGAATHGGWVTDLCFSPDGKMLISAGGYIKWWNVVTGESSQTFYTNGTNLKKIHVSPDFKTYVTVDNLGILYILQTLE

[10] = target: Hepatocyte nuclear factor 4-alpha (Homo sapiens, UniProt P41235); assay type: functional, cell-based;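 also: biochemical luminescence-based dose-response counterscreen measuring inhibition of HNF4 dimerization, run alongside a screen for blockers of ABHD5–perilipin-5 interaction; split luciferase complementation of HNF4 fusion proteins in cell lysate measuring dimerization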
Chain of Hepatocyte nuclear factor 4-alpha (P41235 whole entry, the tested form may be a part): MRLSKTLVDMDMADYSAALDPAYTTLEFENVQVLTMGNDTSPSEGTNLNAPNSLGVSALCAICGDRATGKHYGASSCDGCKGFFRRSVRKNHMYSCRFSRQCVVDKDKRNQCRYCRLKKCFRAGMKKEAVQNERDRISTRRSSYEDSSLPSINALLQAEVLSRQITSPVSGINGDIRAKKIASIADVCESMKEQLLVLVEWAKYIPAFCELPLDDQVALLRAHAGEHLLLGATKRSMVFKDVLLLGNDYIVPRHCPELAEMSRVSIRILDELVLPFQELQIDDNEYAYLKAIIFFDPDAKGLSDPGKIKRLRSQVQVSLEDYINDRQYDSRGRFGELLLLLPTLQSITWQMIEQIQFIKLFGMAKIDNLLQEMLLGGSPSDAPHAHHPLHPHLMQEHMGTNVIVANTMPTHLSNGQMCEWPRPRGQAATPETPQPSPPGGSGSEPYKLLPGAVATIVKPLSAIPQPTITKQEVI

[11] = viability loss in CEM21 cells – cell-based, CellTiter-Glo luminescence, cherry-picked, cytotoxicity control for viral fusion inhibitor project, dose response (AID 652042); assay type: functional;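 also: potency for signal decrease meaning cytotoxicity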
[12] = blockers of HIV-1 ZM109 envelope-driven cell-cell fusion – HeLa effector, CEM target cells, luciferase, cherry-pick, dose response (AID 652058); assay type: functional, cell-based;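 also: luciferase signal from HIV-1 Env mediated cell-cell fusion of effector and target cells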
[13] = target: T7, Sentrin-specific protease 8 (Homo sapiens, UniProt Q96LD8); assay type: functional
T7 sequence (Q96LD8 whole entry): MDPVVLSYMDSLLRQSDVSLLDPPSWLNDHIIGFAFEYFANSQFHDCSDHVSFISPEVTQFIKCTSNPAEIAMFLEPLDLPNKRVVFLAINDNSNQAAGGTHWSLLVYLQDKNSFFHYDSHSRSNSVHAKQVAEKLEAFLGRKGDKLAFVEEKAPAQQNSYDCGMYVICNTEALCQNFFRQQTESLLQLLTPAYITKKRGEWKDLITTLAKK

[14] = target: T7, Sentrin-specific protease 8; assay type: functional; remark: listed apart in the source
Caspase-6 = target: T8, Caspase-6 (Homo sapiens, UniProt P55212); assay: inhibition of CASP6 peptide cleavage – biochemical, VEID-R110 fluorescence, cherry-pick, dose response (AID 720632)
T8 sequence (P55212 whole entry): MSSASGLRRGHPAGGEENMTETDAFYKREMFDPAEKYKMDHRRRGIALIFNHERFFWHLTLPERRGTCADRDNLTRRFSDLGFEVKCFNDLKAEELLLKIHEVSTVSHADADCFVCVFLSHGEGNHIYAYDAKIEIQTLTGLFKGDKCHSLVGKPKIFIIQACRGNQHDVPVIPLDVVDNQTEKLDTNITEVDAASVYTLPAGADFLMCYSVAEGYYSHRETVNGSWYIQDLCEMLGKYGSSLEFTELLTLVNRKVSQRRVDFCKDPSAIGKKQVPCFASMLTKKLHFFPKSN

A549 = assay: viability loss in A549 cells – cell-based, plate reader, cherry-pick samples, cytotoxicity control, dose response (AID 687028); assay type: functional; details: Homo sapiens
Paired box protein Pax-8 = Paired box protein Pax-8 (Homo sapiens, UniProt Q06710); assay: PAX8 transcriptional activity inhibition in RMG-I – RMG-I cells, luciferase, cherry-pick, dose response (AID 687027); assay type: functional, cell-based;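 also: luciferase reporter driven by Pax8 target thyroperoxidase promoter measured by SteadyGlo luminescence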
Chain of Paired box protein Pax-8 (Q06710 whole entry): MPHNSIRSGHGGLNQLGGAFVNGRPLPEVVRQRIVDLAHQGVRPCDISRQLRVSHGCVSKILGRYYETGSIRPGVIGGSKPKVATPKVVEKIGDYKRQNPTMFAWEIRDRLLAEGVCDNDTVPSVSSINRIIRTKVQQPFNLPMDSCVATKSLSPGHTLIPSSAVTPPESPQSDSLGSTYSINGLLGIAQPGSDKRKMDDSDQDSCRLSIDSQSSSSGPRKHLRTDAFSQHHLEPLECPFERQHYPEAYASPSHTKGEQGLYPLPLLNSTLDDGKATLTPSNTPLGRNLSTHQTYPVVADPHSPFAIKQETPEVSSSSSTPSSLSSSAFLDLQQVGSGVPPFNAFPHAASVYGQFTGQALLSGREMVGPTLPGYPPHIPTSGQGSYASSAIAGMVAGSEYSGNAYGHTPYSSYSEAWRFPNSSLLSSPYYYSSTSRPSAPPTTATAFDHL

[15] = OVCAR8 cell viability loss – plate reader, dry powder samples, PAX8 project, dose response (AID 743197); assay type: functional, cell-based; details: OVCAR-8
[16] = Dd2 parasite growth inhibition in erythrocytes – SYBR Green, dry powder samples, set 9, dose response (AID 1159568); assay type: functional, cell-based

COc1ccc(N/C=C2/C(=O)N(c3cccc(C)n3)C(=O)c3ccccc32)c(OC)c1
EC50 [1]: > 300 µM (not active)
EC50 [2]: 55.4 µM (inconclusive)
EC50 [3]: > 99 µM (inactive)
EC50 [4]: 14.5 µM (active)
EC50 [5]: 8.64 µM (active)

CCC(CC)C(=O)Nc1ccc([N+](=O)[O-])cn1
IC50 (Galanin receptor type 3): > 29.9 µM (inactive)
EC50 (cells [6]): > 29.9 µM (inactive)

N#C/C(=C/c1ccc(-c2ccc(S(N)(=O)=O)cc2)o1)c1nc2ccccc2s1
IC50 (CHO): 22.1 µM (inactive)
IC50 (Beta Lactamase): 5.09 µM (active)

O=C(O)C1C2CCC(C2)C1C(=O)NCCc1ccccc1 (configuration not stated)
IC50 (cells [7]): > 29.9 µM (inactive)
EC50 (cells [8]): > 29.9 µM (inactive)

CCCCC[n+]1ccn(C2=C([N-]S(=O)(=O)c3ccc(Br)cc3)C(=O)c3ccccc3C2=O)c1
EC50 (Streptokinase A): > 150 µM (not active)
IC50 [9]: 9.66 µM (active)

N#Cc1ccccc1OCc1cn(CC(=O)c2ccc(O)cc2)nn1
IC50 [10]: 6.36 µM (active)

C[C@@H]1CN([C@H](C)CO)S(=O)(=O)c2ccc(C#Cc3cccc(F)c3)cc2O[C@@H]1CN(C)C(=O)CN1CCOCC1
AC50 [11]: 40.3 µM (active)
AC50 [12]: 0.899 µM (active)

Cc1cccc(N2C(=O)Cc3ccccc3C2=O)c1
IC50 [13]: > 100 µM (inactive)
IC50 [14]: 5.17 µM (active)
AC50 (Caspase-6): 22.7 µM (active)

Cc1cccnc1C(NC(=O)C1CCN(CCCc2ccccc2)CC1)c1ccc(Cl)cc1 (configuration not stated)
AC50 (A549): 27.9 µM (active)

CC(C)(C)NC(=O)C(c1ccc(C#N)cc1)n1c(=O)c(-c2ccco2)nc2ccccc21 (configuration not stated)
IC50 [10]: 1.47 µM (active)

CS(=O)(=O)N1C[C@@H]2N[C@H](C1)[C@@H]2c1ccc(-c2ccccc2)cc1
AC50 (A549): 17.7 µM (active)
AC50 (Paired box protein Pax-8): 4.42 µM (active)
AC50 [15]: > 60 µM (inactive)
AC50 [16]: 9.14 µM (active)

CC(C)(C)CN1CCN(Cc2nc(-c3ccc(F)cc3)cs2)CC1CCO (configuration not stated)
IC50 (Galanin receptor type 3): 2.83 µM (active)
EC50 (cells [6]): > 29.9 µM (inactive)
